According to publication PMC12114274, “Synthesis of 3-Carboxy-6-sulfamoylquinolones and Mefloquine-Based Compounds as Panx1 Blockers: Molecular Docking, Electrophysiological and Cell Culture Studies” (Molecules, 2025):

Columns and labels:
Type in all cases: cell-based
[1] = biological target: T1, mPanx1 (Mus musculus, UniProt Q9JIP4); assay: whole-cell patch clamp, CHO cells transfected with mPanx1, single dose […]; conditions: read-out: I% ^a
T1 construct: gene Panx1

[2] = biological target: T1, mPanx1; assay: whole-cell patch clamp, CHO cells transfected with mPanx1, dose-response (IC50 low micromolar, number not given); conditions: read-out: I% ^a
[3] = biological target: T1, mPanx1; assay: whole-cell patch clamp, CHO cells transfected with mPanx1, dose-response

T1 sequence (Q9JIP4 whole entry): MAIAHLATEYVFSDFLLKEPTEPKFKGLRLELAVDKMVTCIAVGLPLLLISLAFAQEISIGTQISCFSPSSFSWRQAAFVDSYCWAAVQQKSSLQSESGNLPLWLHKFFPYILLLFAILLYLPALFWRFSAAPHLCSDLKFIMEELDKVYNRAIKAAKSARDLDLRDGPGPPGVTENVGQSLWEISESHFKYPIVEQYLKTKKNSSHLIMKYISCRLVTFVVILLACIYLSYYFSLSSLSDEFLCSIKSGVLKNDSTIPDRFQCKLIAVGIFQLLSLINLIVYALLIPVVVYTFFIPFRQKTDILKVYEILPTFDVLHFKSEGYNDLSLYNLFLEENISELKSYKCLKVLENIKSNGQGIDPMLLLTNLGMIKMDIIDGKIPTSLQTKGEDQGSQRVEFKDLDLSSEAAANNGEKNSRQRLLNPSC

SMILES	inhibition at 50 µM [1] [%]	further results
NS(=O)(=O)c1ccc2c(c1)c(=O)c(C(=O)O)cn2Cc1ccc(C(=O)O)cc1 [5b, 1-(4-Carboxybenzyl)-4-oxo-6-sulfamoyl-1,4-dihydroquinoline-3-carboxylic acid]	48.8 ± 5.9	
CCN(CC)S(=O)(=O)c1ccc2c(c1)c(=O)c(C(=O)O)cn2Cc1ccccc1 [12a, 1-Benzyl-6-(N,N-diethylsulfamoyl)-4-oxo-1,4-dihydroquinoline-3-carboxylic acid]	54.6 ± 6	
CCN(CC)S(=O)(=O)c1ccc2c(c1)c(=O)c(C(=O)O)cn2Cc1ccc(C(=O)O)cc1 [12b, 1-(4-Carboxybenzyl)-6-(N,N-diethylsulfamoyl)-4-oxo-1,4-dihydroquinoline-3-carboxylic acid]	73.2 ± 11.9	
CCN(CC)S(=O)(=O)c1ccc2c(c1)c(=O)c(C(=O)O)cn2Cc1ccc(S(N)(=O)=O)cc1 [12c, 6-(N,N-Diethylsulfamoyl)-4-oxo-1-(4-sulfamoylbenzyl)-1,4-dihydroquinoline-3-carboxylic acid]	49.5 ± 6	
CCCN(CCC)S(=O)(=O)c1ccc2c(c1)c(=O)c(C(=O)O)cn2Cc1ccc(C(=O)O)cc1 [12e, 1-(4-Carboxybenzyl)-6-(N,N-dipropylsulfamoyl)-4-oxo-1,4-dihydroquinoline-3-carboxylic acid]		inhibition at 50 µM [2]: 84.8 ± 4.4%
CCCN(CCC)S(=O)(=O)c1ccc2c(c1)c(=O)c(C(=O)O)cn2Cc1ccc(S(N)(=O)=O)cc1 [12f, 6-(N,N-Dipropylsulfamoyl)-4-oxo-1-(4-sulfamoylbenzyl)-1,4-dihydroquinoline-3-carboxylic acid]		IC50 [3]: 2700 nM
CCCN(CCC)S(=O)(=O)c1ccc2c(c1)c(=O)c(C(=O)O)cn2CCc1ccccc1 [12g, 6-(N,N-Dipropylsulfamoyl)-4-oxo-1-phenethyl-1,4-dihydroquinoline-3-carboxylic acid]	57.2 ± 8.5	
O=C(O)c1ccc(CN(Cc2ccc(C(=O)O)cc2)S(=O)(=O)c2ccc3c(c2)c(=O)c(C(=O)O)cn3Cc2ccc(C(=O)O)cc2)cc1 [compound 7, 4,4′-{[((3-carboxy-1-(4-carboxybenzyl)-4-oxo-1,4-dihydroquinolin-6-yl)sulfonyl)azanediyl]bis(methylene)} dibenzoic acid]		inhibition at 50 µM [2]: 79.7 ± 7.2%
